Assay results published in US7700637B2, “Organic compounds” (Novartis AG, priority 2003, dated 2010).

What was measured:
[1] = molecular target: T1, PPARγ receptor (GST-hPPARγ LBD) (Homo sapiens, UniProt P37231); assay: PPARγ receptor functional binding assay (CARLA, TR-FRET); assay type: biochemical; settings: SRC-1 peptide recruitment
T1 construct: GST-hPPARγ LBD (amino acids 175-476); made in house; host or cells: E. coli BL21 (DE3)
T1 sequence (P37231 175-476 isoform P37231-2): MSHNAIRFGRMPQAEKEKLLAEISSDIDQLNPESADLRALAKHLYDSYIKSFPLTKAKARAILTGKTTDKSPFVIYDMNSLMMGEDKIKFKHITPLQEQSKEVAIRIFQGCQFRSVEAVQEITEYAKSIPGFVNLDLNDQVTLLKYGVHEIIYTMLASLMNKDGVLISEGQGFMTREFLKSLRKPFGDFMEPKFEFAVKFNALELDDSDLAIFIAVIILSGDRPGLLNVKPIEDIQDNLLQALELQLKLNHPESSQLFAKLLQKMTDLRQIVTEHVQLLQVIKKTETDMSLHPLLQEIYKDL
Protocol: (§1) The in vitro functional binding to the PPARα, PPARδ and PPARγ receptors is determined as follows:
(§2) The functional binding assays for the PPARα, PPARδ and PPARγ receptors are a variation of the coactivator-dependent receptor ligand assay (CARLA) (Krey et al., Molecular Endocrinology 1997, 11, 779-791). The present CARLA assays use a TR-FRET detection method previously reviewed (Hemmila, J. Biomol. Screening 1999, 4, 303-307; Mathis, J. Biomol. Screening 1999, 4, 309-313). All assays included 3 nM of the glutathione-S-transferase (GST) fusion proteins of either the hPPARα ligand binding domain (LBD) (amino acids 167-468) (GST-hPPARα LBD), GST-hPPARδ LBD (amino acids 139-442) or GST-hPPARγ LBD (amino acids 175-476); 3 nM Eu-labelled anti-GST antibody (Wallac); 30 nM biotinylated steroid receptor coactivator-1 (SRC-1) peptide (an N-terminal biotinylated peptide, […], derived from amino acids 676-700 of SRC-1); and 10 nM streptavidin-labelled allophycocyanin (APC; Prozyme). […] This brings the Eu-labelled anti-GST antibody and the strepavidin-labelled APC in close proximity, thereby facilitating fluorescence energy transfer. […] After mixing all components, the reaction mixture stands for 3 h at RT before reading the TR-FRET signal on a Wallac Victor 2 plate reader (measuring the ratio of signals at 665 nm and 620 nm). […]

[2] = molecular target: T2, PPARα receptor (GST-hPPARα LBD) (Homo sapiens, UniProt Q07869); assay: PPARα receptor functional binding assay (CARLA, TR-FRET); assay type: biochemical; settings: SRC-1 peptide recruitment
T2 construct: made in house; host or cells: E. coli BL21 (DE3)
T2 sequence (Q07869 167-468): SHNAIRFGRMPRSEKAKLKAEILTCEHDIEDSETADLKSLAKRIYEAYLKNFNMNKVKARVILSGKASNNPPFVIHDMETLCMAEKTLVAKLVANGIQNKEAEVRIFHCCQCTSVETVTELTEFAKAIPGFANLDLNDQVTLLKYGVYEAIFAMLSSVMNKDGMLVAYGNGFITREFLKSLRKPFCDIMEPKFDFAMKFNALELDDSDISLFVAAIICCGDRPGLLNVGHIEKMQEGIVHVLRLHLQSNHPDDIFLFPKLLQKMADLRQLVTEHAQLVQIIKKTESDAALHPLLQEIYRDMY
Protocol: as §1, §2

[3] = molecular target: T3, PPARδ receptor (GST-hPPARδ LBD) (Homo sapiens, UniProt Q03181); assay: PPARδ receptor functional binding assay (CARLA, TR-FRET); assay type: biochemical; settings: SRC-1 peptide recruitment
T3 construct: GST-hPPARδ LBD (amino acids 139-442); made in house; host or cells: E. coli BL21 (DE3)
T3 sequence (Q03181 139-441 limits assumed): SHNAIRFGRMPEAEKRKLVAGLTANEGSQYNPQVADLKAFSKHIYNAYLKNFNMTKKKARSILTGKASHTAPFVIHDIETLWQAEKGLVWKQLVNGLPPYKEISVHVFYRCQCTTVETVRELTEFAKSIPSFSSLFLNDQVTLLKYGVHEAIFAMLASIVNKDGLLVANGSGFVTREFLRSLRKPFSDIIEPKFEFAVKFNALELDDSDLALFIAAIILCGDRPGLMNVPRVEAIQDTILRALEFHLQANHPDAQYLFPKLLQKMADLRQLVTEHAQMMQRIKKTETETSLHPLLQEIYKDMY
T3 sequence (Q15788 676-700 partner limits assumed): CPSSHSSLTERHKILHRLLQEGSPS
Protocol: as §1, §2

C57BL ob/ob mice = assay: glucose and insulin lowering activity in vivo in ob/ob mice; settings: daily dose of about 30 mg/kg p.o. in the ob/ob mice
Protocol: The glucose and insulin lowering activity in vivo can be evaluated as follows:
Adult male C57BL ob/ob mice (Jackson Lab, Bar Harbor, Me.) at the age of 11 weeks are housed six per cage in a reversed light cycle room (light on from 6:00 p.m. to 6:00 a.m.) and given access to Purina rodent chow and water ad libitum. On day 1 tail blood samples are taken at 8:00 am and plasma glucose levels are determined. The animals are randomly assigned to the control and compound groups. The means of plasma glucose values of the groups were matched. Animals are then orally dosed with vehicle (0.5% carboxymethyl-cellulose with 0.2% Tween-80) or compounds (at 30 mg/kg) in vehicle. The mice are dosed daily for a total of 3 days. On day 4 basal blood samples are taken. The plasma samples are analyzed for glucose concentrations using a YS12700 Dual Channel Biochemistry Analyzer (Yellow Springs Instrument Co., Yellow Springs, Ohio) and insulin concentrations using an ELISA assay.

Row | SMILES | melting point | other results
1 | Cc1cccc(NS(=O)(=O)c2ccc(OCc3nc(-c4ccccc4)oc3C)cc2)c1C(=O)O [Example 1, 2-Methyl-6-[4-(5-methyl-2-phenyl-oxazol-4-ylmethoxy)-benzenesulfonylamino]-benzoic acid] | 167 to 170 °C | EC50 [1]: ~5 nM; EC50 [2]: ~8 nM; EC50 [3]: ~3500 nM; serum glucose levels (C57BL ob/ob mice): significantly lowers; serum insulin levels (C57BL ob/ob mice): significantly lowers
2 | COc1ccc(NS(=O)(=O)c2ccc(OCc3nc(-c4ccccc4)oc3C)cc2)c(C(=O)O)c1 [Compd 4-16, 5-Methoxy-2-[4-(5-methyl-2-phenyl-oxazol-4-ylmethoxy)-benzenesulfonylamino]-benzoic acid] | 190 to 194 °C | –
3 | Cc1oc(-c2ccccc2)nc1COc1ccc(S(=O)(=O)Nc2cc(-c3ccccc3)ccc2C(=O)O)cc1 [Compd 4-2, 3-[4-(5-Methyl-2-phenyl-oxazol-4-ylmethoxy)-benzenesulfonylamino]-biphenyl-4-carboxylic acid] | 75 to 77 °C | –
4 | O=C(NCc1ccc(C(F)(F)F)cc1)c1ccc(S(=O)(=O)Nc2ccccc2C(=O)O)cc1 [Compd 6-1, 2-[4-(4-Trifluoromethyl-benzylcarbamoyl)-benzenesulfonylamino]-benzoic acid] | 330 to 335 °C | –
5 | COc1cc(NS(=O)(=O)c2ccc(OCc3nc(-c4ccccc4)oc3C)cc2)c(C(=O)O)cc1OC [Compd 4-24, 4,5-Dimethoxy-2-[4-(5-methyl-2-phenyl-oxazol-4-ylmethoxy)-benzenesulfonylamino]-benzoic acid] | 206 to 207 °C | –
6 | Cc1oc(-c2ccccc2)nc1CCOc1ccc(S(=O)(=O)Nc2cc(-c3ccccc3)ccc2C(=O)O)cc1 [Compd 4-19, 3-{4-[2-(5-Methyl-2-phenyl-oxazol-4-yl)-ethoxy]-benzenesulfonylamino}-biphenyl-4-carboxylic acid] | 177 to 179 °C | –
7 | O=C(NCCc1ccc(F)cc1)c1ccc(S(=O)(=O)Nc2ccccc2C(=O)O)cc1 [Example 7, 2-{4-[2-(4-Fluoro-phenyl)-ethylcarbamoyl]-benzenesulfonylamino}-benzoic acid] | 85 to 86 °C | –
8 | Cc1oc(-c2ccc(C(F)(F)F)cc2)nc1COc1ccc(S(=O)(=O)Nc2cc(Cl)ccc2C(=O)O)cc1 [Compd 4-3, 4-Chloro-2-{4-[5-methyl-2-(4-trifluoromethyl-phenyl)-oxazol-4-ylmethoxy]-benzene-sulfonylamino}benzoic acid] | 191 to 193 °C | –
9 | Cc1oc(-c2ccccc2)nc1COc1ccc(S(=O)(=O)Nc2ccc(Cl)cc2C(=O)O)cc1 [Compd 4-15, 5-Chloro-2-[4-(5-methyl-2-phenyl-oxazol-4-ylmethoxy)-benzenesulfonylamino]-benzoic acid] | 207 to 208 °C | –
10 | COc1ccc(NS(=O)(=O)c2ccc(OCCc3nc(-c4ccccc4)oc3C)cc2)c(C(=O)O)c1OC [Compd 4-20, 2,3-Dimethoxy-6-{4-[2-(5-methyl-2-phenyl-oxazol-4-yl)-ethoxy]-benzenesulfonyl-amino}benzoic acid] | 59 to 60 °C | –
11 | Cc1oc(-c2ccccc2)nc1CCOc1ccc(COc2cc3ccccc3cc2C(=O)O)cc1 [Example 14, 3-{4-[2-(5-Methyl-2-phenyl-oxazol-4-yl)-ethoxy]-benzyloxy}-naphthalene-2-carboxylic acid] | 135 to 137 °C | –
12 | Cc1oc(-c2ccccc2)nc1COc1ccc(S(=O)(=O)Nc2ccc(F)cc2C(=O)O)cc1 [Compd 4-14, 5-Fluoro-2-[4-(5-methyl-2-phenyl-oxazol-4-ylmethoxy)-benzenesulfonylamino]-benzoic acid] | 213 to 215 °C | –
13 | COc1ccc(C(=O)O)c(OCc2ccc(OCCc3nc(-c4ccccc4)oc3C)cc2)c1 [Example 11, 4-Methoxy-2-{4-[2-(5-methyl-2-phenyl-oxazol-4-yl)-ethoxy]-benzyloxy}-benzoic acid] | 113 to 115 °C | –
14 | Cc1oc(-c2ccccc2)nc1COc1ccc(S(=O)(=O)Nc2cc(Cl)ccc2C(=O)O)cc1 [Compd 4-7, 4-Chloro-2-[4-(5-methyl-2-phenyl-oxazol-4-ylmethoxy)-benzenesulfonylamino]-benzoic acid] | 98 to 100 °C | –
15 | Cc1oc(-c2ccccc2)nc1COc1cccc(COc2cc(Cl)ccc2C(=O)O)c1 [Example 17, 4-Chloro-2-[3-(5-methyl-2-phenyl-oxazol-4-ylmethoxy)-benzyloxy]-benzoic acid] | 168 °C | –

Second part, led by results:

Row | melting point | SMILES | other results
16 | 182 to 183 °C | CCCOc1cc(C)c(C(=O)O)c(OCc2ccc(OCc3nc(-c4ccccc4)oc3C)cc2)c1 [Compd 21-3, 2-Methyl-6-[4-(5-methyl-2-phenyl-oxazol-4-ylmethoxy)-benzyloxy]-4-propoxy-benzoic acid] | –
17 | 183 to 184 °C | COc1cccc(OCc2ccc(OCCc3nc(-c4ccccc4)oc3C)cc2)c1C(=O)O [Compd 21-10, 2-Methoxy-6-{4-[2-(5-methyl-2-phenyl-oxazolyl)-ethoxy]-benzyloxy}-benzoic acid] | –
18 | 58 to 60 °C | COc1cc(OC)c(C(=O)O)c(OCc2ccc(OCCc3nc(-c4ccccc4)oc3C)cc2)c1 [Compd 21-1, 2,4-Dimethoxy-6-{4-[2-(5-methyl-2-phenyl-oxazol-4-yl)-ethoxy]-benzyloxy}-benzoic acid] | –
19 | 142 to 143 °C | Cc1oc(-c2ccccc2)nc1CCOc1ccc(COc2cccc(F)c2C(=O)O)cc1 [Compd 21-8, 2-Fluoro-6-{4-[2-(5-methyl-2-phenyl-oxazol-4-yl)-ethoxy]-benzyloxy}-benzoic acid] | –
20 | 162 to 163 °C | Cc1oc(-c2ccccc2)nc1CCOc1ccc(COc2cc(C(F)(F)F)cc(C(F)(F)F)c2C(=O)O)cc1 [Compd 21-4, 2-{4-[2-(5-Methyl-2-phenyl-oxazol-4-yl)-ethoxy]-benzyloxy}-4,6-bis-trifluoromethyl-benzoic acid] | –
